For data set [1], the system named is Trichomonas vaginalis cells, TVH1 strain. In kind it is cell-based. Conditions: for inhibition at 0.2 µg/mL / inhibition at 0.4 µg/mL / inhibition at 0.8 µg/mL / inhibition at 1.6 µg/mL / inhibition at 3.1 µg/mL / inhibition at 6.2 µg/mL / inhibition at 3.9 µg/mL / inhibition at 7.8 µg/mL / inhibition at 15.6 µg/mL / inhibition at 31.2 µg/mL / inhibition at 62.5 µg/mL / inhibition at 250 µg/mL: read-out: Growth inhibition percent (Mean ± SD).

Data set [2] relates to Plasmodium falciparum. Conditions: cited from earlier work; for antimalarial activity: among 20 nature identical essential oil constituents.
Data set [3] relates to Trichomonas vaginalis cells, TVH1 strain. Kind of data set: Annexin V/PI apoptosis assay by flow cytometry. The data set is classed as cell-based. Conditions: sub-MLC concentration, 24 hours. (In general: In flow cytometry, cells or beads pass a laser one at a time.)
The nature of data set [4]: MTT cytotoxicity assay. The data set is classed as cell-based. Conditions: African green monkey, Vero cells. (In general: Tetrazolium assays rely on reduction of a dye to a coloured formazan, in cell work by metabolically active cells.)
Data set [5] relates to Vero cells. Briefly: MTT cytotoxicity assay. In kind it is cell-based. Conditions: for CC50: Vero cells.
Data set [6] has as its system promastigotes of L. amazonensis. Conditions: cited from earlier work.
Data set [7] relates to intramacrophagic amastigotes of L. amazonensis. Conditions: cited from earlier work.

≈ marks a conversion by molar mass, not a printed value. Where two headings read alike, the source gives them in different places.

For orientation: inhibition means the percentage by which the read-out fell short of the control. As to `Cc1ncc([N+](=O)[O-])n1CCO` [Metronidazole, reference compound], the “MLC (minimum lethal concentration)” value in data set [1] (12 hours incubation) was 25 µg/mL (≈ 146 µM). The “MLC (minimum lethal concentration)” value in data set [1] (48 hours incubation) stood at 6.25 µg/mL (≈ 36.5 µM). For the same molecule, the “drug susceptibility of the isolate” value in data set [1] (TVH1 isolate) was “sensitive”. For the same molecule, in data set [1] (Trichomonas vaginalis, 12 h), the inhibition at 0.2 µg/mL worked out at 4.9 ± 3.9%, the inhibition at 0.4 µg/mL was 19.3 ± 5.5%, the inhibition at 0.8 µg/mL is 38.9 ± 7.1% and the inhibition at 1.6 µg/mL stood at 59.2 ± 8.6%. In data set [1] (Trichomonas vaginalis, 12 h), the inhibition at 3.1 µg/mL was determined as 64.6 ± 5.3% and the inhibition at 6.2 µg/mL is 77.5 ± 6.3%. For the same molecule, in data set [1] (Trichomonas vaginalis, 24 h), the inhibition at 0.2 µg/mL came out at 10.3 ± 6.7%, the inhibition at 0.4 µg/mL was found to be 32.8 ± 2.6%, the inhibition at 0.8 µg/mL turned out to be 55 ± 4.6% and the inhibition at 1.6 µg/mL was 72.6 ± 2.3%. In addition, in data set [1] (Trichomonas vaginalis, 24 h), the inhibition at 3.1 µg/mL turned out to be 84.6 ± 2.7% and the inhibition at 6.2 µg/mL is 93.4 ± 0.6%. In data set [1] (Trichomonas vaginalis, 48 h), the inhibition at 0.2 µg/mL is 25.9 ± 4.8%, the inhibition at 0.4 µg/mL was 44 ± 2.2%, the inhibition at 0.8 µg/mL was determined as 73.4 ± 2.5% and the inhibition at 1.6 µg/mL stood at 91.5 ± 2.3%. In data set [1] (Trichomonas vaginalis, 48 h), the inhibition at 3.1 µg/mL stood at 98.2 ± 0.4% and the inhibition at 6.2 µg/mL is 100%.

In the case of `C=CC(C)(CCC=C(C)C)OC(C)=O` (stereo not shown) [linalyl acetate], the antimalarial activity entry in data set [2] is “most potent antimalarial activity”.

For `C=CC(C)(O)CCC=C(C)CCC=C(C)C` (mixture of isomers) [nerolidol], in data set [2], the antimalarial activity entry is on record as “most potent antimalarial activity”.

By CC50 is commonly meant the concentration at which the toxic effect on the cells reaches its halfway point. In the case of `CC1=CCC2CC1C2(C)C` (stereo not drawn) [α-Pinene], the “MLC (minimum lethal concentration)” value in data set [1] (12 hours incubation) stood at 250 µg/mL (≈ 1840 µM); in data set [1] (24 hours incubation), 125 µg/mL (≈ 918 µM); in data set [1] (48 hours incubation) it was 125 µg/mL (≈ 918 µM). The IC50 in data set [1] (Trichomonas vaginalis, 12 h) was 38.9 µg/mL (≈ 286 µM); in data set [1] (Trichomonas vaginalis, 24 h) it was 30.2 µg/mL (≈ 222 µM); in data set [1] (Trichomonas vaginalis, 48 h), 22.9 µg/mL (≈ 168 µM); in data set [1] (Trichomonas vaginalis, read-out: IC50 (range over incubation times)) it was 22.9 to 38.9 µg/mL (≈ 168 to 286 µM); in data set [1] (Trichomonas vaginalis, read-out: mean IC50), 30.7 µg/mL (≈ 225 µM); in data set [2] (read-out: IC 50 (growth inhibition)) it was 1200 ± 200 nM. Moreover, in data set [6], the IC50 was 19.7 µg/mL (≈ 145 µM). In addition, the inhibition at 3.9 µg/mL in data set [1] (Trichomonas vaginalis, 12 h) stood at 21.4 ± 7.6%; in data set [1] (Trichomonas vaginalis, 24 h), 15.5 ± 5.8%; in data set [1] (Trichomonas vaginalis, 48 h), 10.2 ± 6.5%. The inhibition at 7.8 µg/mL in data set [1] (Trichomonas vaginalis, 12 h) came out at 26.3 ± 5.5%; in data set [1] (Trichomonas vaginalis, 24 h), 29.2 ± 6.3%; in data set [1] (Trichomonas vaginalis, 48 h) it was 45.3 ± 4.7%. In addition, the inhibition at 15.6 µg/mL in data set [1] (Trichomonas vaginalis, 12 h) was found to be 40.2 ± 6.3%; in data set [1] (Trichomonas vaginalis, 24 h), 69.3 ± 7.7%; in data set [1] (Trichomonas vaginalis, 48 h), 74.3 ± 5.2%. For the same molecule, the inhibition at 31.2 µg/mL in data set [1] (Trichomonas vaginalis, 12 h) amounted to 48.5 ± 4.1%; in data set [1] (Trichomonas vaginalis, 24 h) it was 76.5 ± 8.8%; in data set [1] (Trichomonas vaginalis, 48 h), 84.1 ± 4.3%. The inhibition at 62.5 µg/mL in data set [1] (Trichomonas vaginalis, 12 h) was 54.5 ± 3.3%; in data set [1] (Trichomonas vaginalis, 24 h), 80.9 ± 6.4%; in data set [1] (Trichomonas vaginalis, 48 h), 96.7 ± 6.2%. For the same molecule, the inhibition at 250 µg/mL in data set [1] (Trichomonas vaginalis, 12 h) came out at 100%; in data set [1] (Trichomonas vaginalis, 24 h), 100%; in data set [1] (Trichomonas vaginalis, 48 h), 100%. The necrotic effect in data set [3] came out at 50.5%. The molecule further returned a CC50 at 12 h in data set [4] of 226 µg/mL (≈ 1660 µM). In data set [4], this molecule had a CC50 at 24 h of 209 µg/mL (≈ 1530 µM). In data set [4], this molecule had a CC50 at 48 h of 116 µg/mL (≈ 851 µM). In addition, the “SI (selectivity index = CC50/IC50)” value came out at 5.8 in data set [5] (Vero CC50 / Trichomonas IC50, 12 hours); 6.9 in data set [5] (Vero CC50 / Trichomonas IC50, 24 hours); 5 in data set [5] (Vero CC50 / Trichomonas IC50, 48 hours). Besides, the “average selectivity index (SI)” value in data set [5] (average of 12, 24 and 48 hours) was determined as 5.9. Further, in data set [2], the antimalarial activity result is recorded as “most potent antimalarial activity”. Further, in data set [7], the “IC50 (cytotoxic effect)” value was 15.6 µg/mL (≈ 115 µM).

`CC(C)=C1CC[C@@H](C)CC1=O` [pulegone]: the antimalarial activity entry in data set [2] was “most potent antimalarial activity”.

As to Tannic acid, the “Growth inhibition percent (Mean ± SD)” value in data set [1] (62.5 μg/ml, 12 hours) amounted to 1.4 ± 5.2%; in data set [1] (62.5 μg/ml, 24 hours), 4.3 ± 4.9%; in data set [1] (62.5 μg/ml, 48 hours), 21.1 ± 6.2%; in data set [1] (250 μg/ml, 12 hours), 13.4 ± 8.3%; in data set [1] (250 μg/ml, 24 hours), 26.4 ± 3.9%; in data set [1] (250 μg/ml, 48 hours), 71.5 ± 6.8%. Besides, the “Growth inhibition percent (Mean ± SD)” value stood at 16.9 ± 5.2% in data set [1] (500 μg/ml, 12 hours); 33.8 ± 4.8% in data set [1] (500 μg/ml, 24 hours); 74.9 ± 5.1% in data set [1] (500 μg/ml, 48 hours); 19.8 ± 6.7% in data set [1] (1000 μg/ml, 12 hours); 59.9 ± 6.2% in data set [1] (1000 μg/ml, 24 hours); 87.6 ± 4.4% in data set [1] (1000 μg/ml, 48 hours). The “Growth inhibition percent (Mean ± SD)” value in data set [1] (2000 μg/ml, 12 hours) is 78.8 ± 5.1%; in data set [1] (2000 μg/ml, 24 hours), 80.4 ± 3.8%; in data set [1] (2000 μg/ml, 48 hours) it was 100 ± 0.0%; in data set [1] (4000 μg/ml, 12 hours), 100 ± 0.0%; in data set [1] (4000 μg/ml, 24 hours), 100 ± 0.0%; in data set [1] (4000 μg/ml, 48 hours), 100 ± 0.0%. Besides, the IC50 in data set [1] (12 hours incubation) amounted to 1398 µg/mL; in data set [1] (24 hours incubation), 689 µg/mL; in data set [1] (48 hours incubation), 140 µg/mL. Moreover, the “MLC (minimum lethal concentration)” value was 4000 µg/mL in data set [1] (12 hours incubation), 4000 µg/mL in data set [1] (24 hours incubation) and 2000 µg/mL in data set [1] (48 hours incubation). In addition, the “mean IC50” value in data set [1] (average of 12, 24 and 48 hours) was 742.3 µg/mL. For the same molecule, the necrotic effect in data set [3] is 31.9%. Moreover, the values for the CC50 in data set [5] (12 hours), in data set [5] (24 hours) and in data set [5] (48 hours) were 747 µg/mL, 677 µg/mL and 473 µg/mL, respectively.
